Data from publication PMC6409085, “Three odorant-binding proteins are involved in the behavioral response of Sogatella furcifera to rice plant volatiles” (PeerJ, 2019).
Read-outs that look alike come from different tables or passages of the source.

Legend:
[1] = system: dsRNA treated S. furcifera adults; assay: Y-tube olfactometer behavioral trials after RNAi; format: in vivo, Sogatella furcifera; settings: for number of insects choosing hexane arm / number of insects choosing volatile arm / number of insects failed (no choice): odorant vs hexane
Procedure: To test the effect of the rice odorants on the behavior of S. furcifera adults, a glass Y-tube olfactometer (inner diameter 2.0 cm, stem 13 cm, arms 10 cm, angle of arms 60°) according to the previously described ([Wang et al., 2014b]) was employed. An airtight cubic box (70 by 45 by 30 cm) was used to position Y-tube, and the Y-tube was lighted by a 30-W filament lamp 25 cm above it. Air that filtered through activated charcoal and humidified with doubly distilled water was pumped in both arms at a flow rate of 300 mL/min. Two filter paper strips (10 by 1 cm) containing 100 µL odorant source (50 µL/L) and 100 µL control hexane were placed in two holding chambers in the front of the olfactometer, respectively. A S. furcifera adult (2 days after emergence, starved for 0.5 h) was randomly chosen and placed in the stem of the Y-tube. Each insect was given 10 min to choose between the two arms of the Y-tube, the choice was noted if the planthopper reached one-half of the arms’ lengths and stayed in the arm for more than 1 min. Besides, S. furcifera was considered as having no orientation preference. Forty-five individuals were used for each compound, each insect used only once. And the dual-choice experiment was done in an environmentally controlled room (25 ± 1 °C and 50% RH). A Chi-squared test was used to analyze the behavioral assay data by using SPSS19.0 (SPSS Inc., Chicago, IL, USA) software.
S. furcifera adults (one-day-old, CO2 anesthetized) were injected with dsRNA (50 nL/adult, 2,000 ng/µL) through the membrane between the meso- and meta-thoracic legs using a Nanoinjector (Drummond Scientific, Broomall, PA, USA). Five treatments including dsOBP2, dsOBP3, dsOBP11, dsEGFP and RNase-free water (Control) were set up. Each treatment consisted of 30 adults and the experiments were repeated three times. Ten individuals were collected from each replicate to determine the effects of RNAi by qPCR post 24 h of dsRNA injection (the timepoint with maximum RNAi efficiency after injection). Meanwhile, the behavioral responses of dsRNA treated adults for volatiles which binding well to OBP and attract or repel to S. furcifera were tested using a Y-tube olfactometer as described above.

S. furcifera adults = system: S. furcifera adults; parameters: method as in Wang et al., 2017; settings: previously reported, ref Wang et al., 2017, cited from earlier work

| SMILES | behavioral response (in words) ([1]; dsOBP11 injected adults) | number of insects choosing hexane arm ([1]; dsOBP11 injected adults) | number of insects choosing volatile arm ([1]; dsOBP11 injected adults) | number of insects failed (no choice) ([1]; dsOBP11 injected adults) | behavioral response of S. furcifera (in words) (S. furcifera adults) | behavioral response of S. furcifera (in words) (S. furcifera adults; listed as Plant alcohol) | behavioral response (in words) ([1]; dsOBP3 injected adults) | number of insects choosing hexane arm ([1]; dsOBP3 injected adults) | number of insects choosing volatile arm ([1]; dsOBP3 injected adults) | number of insects failed (no choice) ([1]; dsOBP3 injected adults) | behavioral response (in words) ([1]; SfurOBP2 silenced adults) | number of insects choosing hexane arm ([1]; dsOBP2 injected adults) | number of insects choosing volatile arm ([1]; dsOBP2 injected adults) | number of insects failed (no choice) ([1]; dsOBP2 injected adults) |
| --- | --- | --- | --- | --- | --- | --- | --- | --- | --- | --- | --- | --- | --- | --- |
| C/C(=C\CO)CCC[C@H](C)CCC[C@H](C)CCCC(C)C [plant alcohol] | lost the activation that repel | 17 | 19 | 13 | significantly repellent effect | strongly repellent | – | – | – | – | – | – | – | – |
| C=C/C(C)=C/C/C=C(\C)CCC=C(C)C [α-farnesene] | – | – | – | – | – | – | no longer attracted | 11 | 12 | 15 | – | – | – | – |
| CC(=O)/C=C/C1=C(C)CCCC1(C)C [β-Ionone] | – | 8 | 17 | 16 | – | – | – | 9 | 16 | 15 | significantly reduced the number of adults that attracted | 14 | 13 | 15 |
